Experiments:
Test in all cases: Antibacterial screen at 200 μg/mL (cell density vs control)
Format in all cases: cell-based
Conditions in all cases: peptide 200 μg/mL, CAMHB, 5 × 10^5 CFU/mL, 37°C, 12 h, OD600; control (no AMP) = 1; three biological replicates
[1] = tested on: Vibrio alginolyticus xv22
Experimental: (§1) Eight bacterial strains were utilized in the antibacterial experiment. S. aureus ATCC 12600, B. subtilis ATCC 23857, E. coli ATCC 11775, and A. baumannii ATCC 19606 were purchased from Shanghai Beinuo Biology. M. luteus ATCC 4698 and S. bongori ATCC43975 were purchased from Shanghai Beisi Biotechnology. V. owensii ems001 and V. alginolyticus xv22 from the intestines of diseased shrimps were isolated in our laboratory. All strains were cultured in the cation‐adjusted Mueller‐Hinton broth (CAMHB) at 37°C to the logarithmic growth phase (OD600 = 0.5). Then, bacteria were gradient‐diluted using fresh CAMHB to a bacterial density of 5 × 10^5 CFU/mL. Antibacterial experiments were performed in a 96‐well plate with 200 μg/mL final peptide concentration. Four experimental groups were set up, including a blank control (200 μL CAMHB), a negative control (180 μL CAMHB plus 20 μL peptide), a positive control (180 μL bacterial culture plus 20 μL ultrapure water), and an experimental group (180 μL bacterial culture plus 20 μL peptide). Three biological replicates were conducted for each group, and OD600 values were measured after incubation at 37°C for 12 h. Every observed value was removed from the blank control group value. The value of the experimental group was then subtracted from the value of the negative control group therefore eradicating the effect of the peptide on the OD measurement. Student's t‐test allowed the estimation of a notable variation between the experimental and positive groups using a p‐value of 0.05 as the limit. […] The MIC of a peptide against a bacterium was determined as the minimum peptide concentration at which there was no visible bacterial growth.

[2] = tested on: Bacillus subtilis ATCC 23857
Experimental: as §1

[3] = tested on: Micrococcus luteus ATCC 4698
Experimental: as §1

[4] = tested on: Salmonella bongori ATCC 43975
Experimental: as §1

[5] = tested on: Acinetobacter baumannii ATCC 19606
Experimental: as §1

Vibrio owensii ems001 = tested on: Vibrio owensii ems001
Experimental: as §1

[6] = tested on: Staphylococcus aureus ATCC 12600
Experimental: as §1

[7] = tested on: Escherichia coli ATCC 11775
Experimental: as §1

Sequence | cell density relative to control, V. alginolyticus xv22 [1] | cell density relative to control, B. subtilis ATCC 23857 [2] | cell density relative to control, M. luteus ATCC 4698 [3] | cell density relative to control, S. bongori ATCC 43975 [4] | cell density relative to control, A. baumannii ATCC 19606 [5] | cell density relative to control, V. owensii ems001 (Vibrio owensii ems001) | cell density relative to control, S. aureus ATCC 12600 [6] | cell density relative to control, E. coli ATCC 11775 [7]
MGAVCRMGSLPCLIPRGAIRLG [Cand-198, chemically synthesized candidate AMP predicted from marine biofilm bacteria] | 0.891 | 1 | 1 | 0.827 | 0.765 | 0.904 | 0.817 | 0.844
MGPHWRGPRWGRVGCWNL [Cand-154, chemically synthesized candidate AMP predicted from marine biofilm bacteria] | 0.077 | 0 | 0.814 | 0.544 | 1 | 0.004 | 0.038 | 0.622
MGRISCMWSSSYKCRFNCYF [Cand-20, chemically synthesized candidate AMP predicted from marine biofilm bacteria] | 0.635 | 1 | 1 | 1 | 0.937 | 0.818 | 0.809 | 1
MGTYPKVGNSHWKR [Cand-69, chemically synthesized candidate AMP predicted from marine biofilm bacteria] | 1 | 1 | 1 | 0.886 | 0.889 | 1 | 0.819 | 1
MICWCAKICCSCSAFRRWWKRNGTAC [Cand-57, chemically synthesized candidate AMP predicted from marine biofilm bacteria] | 0 | 0 | 1 | 0.134 | 0.653 | 0.002 | 0 | 0.456
MIYICTRITKCKLHGGCSSVG [Cand-155, chemically synthesized candidate AMP predicted from marine biofilm bacteria] | 1 | 0.99 | 1 | 1 | 1 | 0.77 | 0 | 1
MKALRRFLSCKVCSHALN [Cand-160, chemically synthesized candidate AMP predicted from marine biofilm bacteria] | 0.001 | 0 | 0.638 | 0.072 | 0.001 | 0.442 | 0 | 0.406
MKGLSKCVTHVVTAA [Cand-115, chemically synthesized candidate AMP predicted from marine biofilm bacteria] | 1 | 1 | 1 | 0.935 | 1 | 0.994 | 0.907 | 1
MKRLKKCVLSSLSI [Cand-126, chemically synthesized candidate AMP predicted from marine biofilm bacteria] | 0.039 | 0.301 | 0 | 0.299 | 0.191 | 1 | 0 | 0.448
MLKLSWNLCRPIGRRW [Cand-186, chemically synthesized candidate AMP predicted from marine biofilm bacteria] | 0.192 | 0 | 0.164 | 0.245 | 0.276 | 0.091 | 0.112 | 0.036
MLRRIGRMWRKLHPHGQ [Cand-10, chemically synthesized candidate AMP predicted from marine biofilm bacteria] | 0.001 | 0.032 | 0.001 | 0.009 | 0.009 | 0.041 | 0.007 | 0.001
MLTTIAKSTKKCKPKSCCACSLYRC [Cand-216, chemically synthesized candidate AMP predicted from marine biofilm bacteria] | 0 | 0.845 | 0.978 | 0.556 | 1 | 0.018 | 0.86 | 0.832
MPASRRCRPCCRLSGC [Cand-7, chemically synthesized candidate AMP predicted from marine biofilm bacteria] | 0.016 | 0.065 | 1 | 1 | 1 | 0.114 | 0.01 | 0.989

From publication PMC11683478, “Bioprospecting of culturable marine biofilm bacteria for novel antimicrobial peptides” (iMeta, 2024)
